In patent US8399515B2, “Five and fifteen carbon fatty acids for treating metabolic disorders and as nutritional supplements” (Baylor Research Institute, priority 2003, dated 2013):
“And” between values parts separate entries of the source, which are not always exact repeats. Equal entries are not always repeated.

Tests used:
[1] = system: fibroblasts from patients with Very-long-chain acyl-CoA dehydrogenase (VLCAD) deficiency, severe cardiac form; experiment: Propionylcarnitine from oxidation of odd-carbon fatty acids in VLCAD (cardiac) fibroblasts; assay type: cell-based, human; conditions: VLCAD cardiac fibroblasts, one line per patient, 72 hours incubation
Procedure: (§1) Fibroblasts obtained from patients with inherited defects of mitochondrial fat oxidation were cultured in the presence of omega deuterated odd-carbon numbered fatty acids, as described in Roe, C. R., Sweetman, L., Roe, D. S., David, F., Brunengraber, H., “Effective Dietary Treatment of Cardiomyopathy & Rhabdomyolysis in Long-Chain Fat Oxidation Disorders using an Anaplerotic Odd-Chain Triglyceride,” J. Clin. Invest. 110 (2): 259-269 (2002).
(§2) The data in Table 1 represents testing of cultured fibroblasts derived from ten patients afflicted with Very-long-chain acyl-CoA dehydrogenase (VLCAD) deficiency (six patients with the severe cardiac form and four with the non-cardiac milder phenotype), two patients with Mitochondrial Trifunctional Protein (MTP) deficiency, five patients having L-3-hydroxy-acyl-CoA dehydrogenase (LCHAD) deficiency and three patients with Short-chain acyl-CoA dehydrogenase (SCAD) deficiency.

[2] = system: fibroblasts from patients with VLCAD deficiency, non-cardiac milder phenotype; experiment: Propionylcarnitine from oxidation of odd-carbon fatty acids in VLCAD (non-cardiac) fibroblasts; assay type: cell-based, human; conditions: VLCAD non-cardiac fibroblasts, one line per patient, 72 hours incubation
Procedure: as §1, §2

[3] = system: fibroblasts from patients with Mitochondrial Trifunctional Protein (MTP) deficiency; experiment: Propionylcarnitine from oxidation of odd-carbon fatty acids in MTP fibroblasts; assay type: cell-based, human; conditions: MTP fibroblasts, one line per patient, 72 hours incubation
Procedure: as §1, §2

[4] = system: fibroblasts from patients with L-3-hydroxy-acyl-CoA dehydrogenase (LCHAD) deficiency; experiment: Propionylcarnitine from oxidation of odd-carbon fatty acids in LCHAD fibroblasts; assay type: cell-based, human; conditions: LCHAD fibroblasts, one line per patient, 72 hours incubation
Procedure: as §1, §2

[5] = system: fibroblasts from patients with Short-chain acyl-CoA dehydrogenase (SCAD) deficiency; experiment: Propionylcarnitine from oxidation of odd-carbon fatty acids in SCAD fibroblasts; assay type: cell-based, human; conditions: SCAD fibroblasts, one line per patient, 72 hours incubation
Procedure: as §1, §2

[6] = system: MCAD-deficient fibroblasts; experiment: Fate of odd-carbon fatty acids in MCAD-deficient fibroblasts; assay type: cell-based, human; parameters: *C3 acylcarnitine / *C5 acylcarnitine / *C7 acylcarnitine / *C9 acylcarnitine / *C11 acylcarnitine / *C13 acylcarnitine / *C15 acylcarnitine: unit not given here; conditions: for *C3 acylcarnitine / *C5 acylcarnitine / *C7 acylcarnitine / *C9 acylcarnitine: MCAD fibroblasts, N 4
Procedure: as §1
Fibroblasts from four patients with MCAD deficiency and one heterozygote (carrier) indicate that odd-carbon fatty acids containing more than seven carbons can not be effectively used in that disease. […]

[7] = system: fibroblasts from MCAD heterozygote (carrier); experiment: Fate of odd-carbon fatty acids in MCAD carrier fibroblasts; assay type: cell-based, human; parameters: unit not given here
Procedure: as §1
Fibroblasts from four patients with MCAD deficiency and one heterozygote (carrier) indicate that odd-carbon fatty acids containing more than seven carbons can not be effectively used in that disease. […] That any C3 was produced is presumably due to overlapping

[8] = system: control / normal fibroblasts; experiment: Fate of odd-carbon fatty acids in control (normal) fibroblasts; assay type: cell-based, human; parameters: *C3 acylcarnitine / *C5 acylcarnitine / *C7 acylcarnitine / *C9 acylcarnitine / *C11 acylcarnitine / *C13 acylcarnitine / *C15 acylcarnitine: unit not given here; conditions: for Propionylcarnitine from odd carbon precursor: NORMAL fibroblasts
Procedure: Fibroblasts obtained from patients with inherited defects of mitochondrial fat oxidation were cultured in the presence of omega deuterated odd-carbon numbered fatty acids, as described in Roe, C. R., Sweetman, L., Roe, D. S., David, F., Brunengraber, H., “Effective Dietary Treatment of Cardiomyopathy & Rhabdomyolysis in Long-Chain Fat Oxidation Disorders using an Anaplerotic Odd-Chain Triglyceride,” J. Clin. Invest. 110 (2): 259-269 (2002). […]

VLCAD patient = experiment: Meal test with triheptanoin or tripentanoin in a VLCAD patient; assay type: in vivo, human; parameters: Myristenoylcarnitine Level: unit not given here; conditions: for Myristenoylcarnitine Level / Propionylcarnitine Level: blood
From the text: (§3) A VLCAD patient and an SCAD patient, both of whom had gastrostomy sites for enteral administration, each were provided with separate meals containing equimolar amounts of triheptanoin (C7) and tripentanoin (C5) at different times on the same day. Each patient was given the amount in 1 of 4 daily meals equivalent to a diet of 3 gms/Kg/day or about 30% of total Kcal as the triglyceride. Serial blood samples were obtained hourly and individual urines were collected at baseline and during the meal.
(§4) The patient with VLCAD (FIG. 3) was monitored over a 3 hour interval and the SCAD patient was monitored for 4 hours after beginning the meal. […] One way the VLCAD patient was monitored was for myristenoylcamitine (cis-5-C14:1), which reflects oxidation of oleate and is therefore an indication of ongoing lipolysis during the meal tests (it is not derived from either C7 or C5). […] These changes are not observed with even-carbon triglycerides.

SCAD patient = experiment: Meal test with triheptanoin or tripentanoin in a SCAD patient; assay type: in vivo, human
From the text: as §3, §4
The second patient with SCAD deficiency (FIG. 4) had been receiving the triheptanoin diet for more than 2 years. This disorder is due to an inherited deficiency of butyryl-CoA dehydrogenase (SCAD) and is known to oxidize even carbon fatty acids of 4-6 carbon chain length.
In FIG. 4, C7-C3 represents the blood levels of C3 derived from C7; and C5-C3 represents the blood levels of C3 derived from C5, C7-C5 represents blood levels of pentanoylcarnitine (C5) derived from C7 meals and C5-C5 represents blood levels of pentanoylcarnitine (C5) derived from C5 meals. […] C7-C4 and C5-C4 represent the levels of the disease-specific acylcarnitine (butyrylcarnitine [C4]) observed in SCAD deficiency. […] This increased quantity of C3 corresponds to those observed for SCAD deficiency in the fibroblast studies above shown in Table 1.

Structure (SMILES): CCCCCCC(=O)O [C7, heptanoate, reference compound]
- Propionylcarnitine from oxidation of fatty acid [1]: 28.7 nmol/mg Protein/72 hours and 13.0 nmol/mg Protein/72 hours and 44.5 nmol/mg Protein/72 hours and 17.8 nmol/mg Protein/72 hours and 20.4 nmol/mg Protein/72 hours and 25.0 nmol/mg Protein/72 hours
- Propionylcarnitine from oxidation of fatty acid [2]: 22.6 nmol/mg Protein/72 hours and 20.3 nmol/mg Protein/72 hours and 24.3 nmol/mg Protein/72 hours and 14.4 nmol/mg Protein/72 hours
- Propionylcarnitine from oxidation of fatty acid [3]: 24.1 nmol/mg Protein/72 hours and 48.1 nmol/mg Protein/72 hours
- Propionylcarnitine from oxidation of fatty acid [4]: 53.2 nmol/mg Protein/72 hours and 23.5 nmol/mg Protein/72 hours and 24.0 nmol/mg Protein/72 hours and 10.6 nmol/mg Protein/72 hours and 22.7 nmol/mg Protein/72 hours
- Propionylcarnitine from oxidation of fatty acid [5]: 57.7 nmol/mg Protein/72 hours and 32.4 nmol/mg Protein/72 hours and 39.2 nmol/mg Protein/72 hours
- *C3 acylcarnitine ([6]; Maximum): 15.4
- *C5 acylcarnitine ([6]; Maximum): 1.8
- *C7 acylcarnitine ([6]; Maximum): 12.0
- *C3 acylcarnitine ([6]; Mean): 8.3
- *C5 acylcarnitine ([6]; Mean): 1.1
- *C7 acylcarnitine ([6]; Mean): 8.3
- *C3 acylcarnitine ([6]; Minimum): 5.7
- *C5 acylcarnitine ([6]; Minimum): 0.7
- *C7 acylcarnitine ([6]; Minimum): 2.4
- Propionylcarnitine from odd carbon precursor ([6]; MCAD-1 fibroblast cell line): 10.6 nmol/mg Protein/72 hours
- Propionylcarnitine from odd carbon precursor ([6]; MCAD-2 fibroblast cell line): 17.4 nmol/mg Protein/72 hours
- *C3 acylcarnitine [7]: 16.3
- *C5 acylcarnitine [7]: 0.9
- *C7 acylcarnitine [7]: 0.5
- *C3 acylcarnitine ([8]; CONTROL MEAN, N = 4): 24.3
- *C5 acylcarnitine ([8]; CONTROL MEAN, N = 4): 1.3
- *C7 acylcarnitine ([8]; CONTROL MEAN, N = 4): 0.4
- Propionylcarnitine from odd carbon precursor [8]: 24.3 nmol/mg Protein/72 hours
- Myristenoylcarnitine Level (VLCAD patient; time 0 hours, cis-5-C14:1, marker of lipolysis): 2.61
- Propionylcarnitine Level (VLCAD patient; time 0 hours, enteral meal via gastrostomy): 1.39
- Myristenoylcarnitine Level (VLCAD patient; time 1 hours): 2.83
- Propionylcarnitine Level (VLCAD patient; time 1 hours): 2.89
- Myristenoylcarnitine Level (VLCAD patient; time 2 hours): 1.38
- Propionylcarnitine Level (VLCAD patient; time 2 hours): 3.78
- Myristenoylcarnitine Level (VLCAD patient; time 3 hours): 2.64
- Propionylcarnitine Level (VLCAD patient; time 3 hours): 4.57
- Clinical or biochemical toxicity (VLCAD patient; meal test, 3 hour interval): no clinical or biochemical toxicity
- Clinical or biochemical toxicity (SCAD patient; meal test, 4 hours): no clinical or biochemical toxicity
- Relative Blood Levels of Fatty Acid Chain Lengths: C3 (SCAD patient; time 0 hours): 3.00
- Relative Blood Levels of Fatty Acid Chain Lengths: C4 (butyrylcarnitine) (SCAD patient; time 0 hours): 0.34
- Relative Blood Levels of Fatty Acid Chain Lengths: C3 (SCAD patient; time 1 hours): 2.08
- Relative Blood Levels of Fatty Acid Chain Lengths: C4 (butyrylcarnitine) (SCAD patient; time 1 hours): 0.16
- Relative Blood Levels of Fatty Acid Chain Lengths: C3 (SCAD patient; time 2 hours): 2.42
- Relative Blood Levels of Fatty Acid Chain Lengths: C4 (butyrylcarnitine) (SCAD patient; time 2 hours): 0.23
- Relative Blood Levels of Fatty Acid Chain Lengths: C3 (SCAD patient; time 3 hours): 3.29
- Relative Blood Levels of Fatty Acid Chain Lengths: C4 (butyrylcarnitine) (SCAD patient; time 3 hours): 0.26
- Relative Blood Levels of Fatty Acid Chain Lengths: C3 (SCAD patient; time 4 hours): 2.61
- Relative Blood Levels of Fatty Acid Chain Lengths: C4 (butyrylcarnitine) (SCAD patient; time 4 hours): 0.30

Structure (SMILES): CCCCCCCCC(=O)O [C9, nonanoate, reference compound]
- *C3 acylcarnitine ([6]; Maximum): 5.5
- *C5 acylcarnitine ([6]; Maximum): 0.7
- *C7 acylcarnitine ([6]; Maximum): 4.2
- *C9 acylcarnitine ([6]; Maximum): 10.3
- *C3 acylcarnitine ([6]; Mean): 3.0
- *C5 acylcarnitine ([6]; Mean): 0.5
- *C7 acylcarnitine ([6]; Mean): 2.8
- *C9 acylcarnitine ([6]; Mean): 7.3
- *C3 acylcarnitine ([6]; Minimum): 1.6
- *C5 acylcarnitine ([6]; Minimum): 0.3
- *C7 acylcarnitine ([6]; Minimum): 1.6
- *C9 acylcarnitine ([6]; Minimum): 4.0
- Propionylcarnitine from odd carbon precursor ([6]; MCAD-1 fibroblast cell line): 1.8 nmol/mg Protein/72 hours
- Propionylcarnitine from odd carbon precursor ([6]; MCAD-2 fibroblast cell line): 2.9 nmol/mg Protein/72 hours
- *C3 acylcarnitine [7]: 6.0
- *C5 acylcarnitine [7]: 0.4
- *C7 acylcarnitine [7]: 0.4
- *C9 acylcarnitine [7]: 3.2
- *C3 acylcarnitine ([8]; CONTROL MEAN, N = 4): 3.9
- *C5 acylcarnitine ([8]; CONTROL MEAN, N = 4): 0.4
- *C7 acylcarnitine ([8]; CONTROL MEAN, N = 4): 0.3
- *C9 acylcarnitine ([8]; CONTROL MEAN, N = 4): 2.0
- Propionylcarnitine from odd carbon precursor [8]: 3.9 nmol/mg Protein/72 hours
